Data: patent publication US20250230193A1, “CYCLIC COMPOUND HAVING SELECTIVE KRAS INHIBITORY EFFECT ON HRAS AND NRAS” (CHUGAI SEIYAKU KABUSHIKI KAISHA, priority 2022, published 2025)
*1 amine or outer side, *2 acyl side, *3 side chain or, on linkers, in order; H or OH if unused. Where a SMILES comes first, the peptide text is derived from it. Bridges are numbered along the chain shown (N, C = ends). [ ]: non-standard residue; d: D form. The star is where a group is joined. hPhe(3-Cl-4-CF3) = N[C@@H](CCc1ccc(C(F)(F)F)c(Cl)c1)C(=O)O; X23 = CC(C)CN([C@@H](Cc1ccc(C(F)(F)F)cc1)C(=O)[*:2])[*:1]; NPrPhe(4-CF3) = CCCN[C@@H](Cc1ccc(C(F)(F)F)cc1)C(=O)O; NMeGly(cPent) = CN[C@H](C(=O)O)C1CCCC1; NMeD = CN[C@@H](CC(=O)O)C(=O)O; NMeL = CN[C@@H](CC(C)C)C(=O)O; Morpholide = C1CN(*)CCO1; NMeA = CN[C@@H](C)C(=O)O; Ac5c = NC1(C(=O)O)CCCC1; Aze = O=C(O)[C@@H]1CCN1; Ac4c = NC1(C(=O)O)CCC1; Sar = CNCC(=O)O

Legend:
[1] = biological target: GDP-bound NRAS wild-type protein (Homo sapiens, UniProt P01111); assay: Binding to NRAS by surface plasmon resonance (SPR), Single Cycle Kinetics; settings: for NRAS/KRAS (ratio of KD value with respect to NRAS to KD value with respect to KRAS): GDP-bound NRAS wild-type vs GDP-bound KRAS wild-type
GDP-bound NRAS wild-type protein, sequence (P01111 whole entry): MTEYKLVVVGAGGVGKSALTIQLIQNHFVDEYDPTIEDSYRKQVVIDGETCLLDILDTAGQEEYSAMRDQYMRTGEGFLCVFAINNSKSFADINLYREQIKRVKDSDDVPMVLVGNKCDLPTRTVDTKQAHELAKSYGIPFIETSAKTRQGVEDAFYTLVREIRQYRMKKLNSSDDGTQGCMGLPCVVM

[2] = biological target: GDP-bound HRAS wild-type protein (Homo sapiens, UniProt P01112); assay: Binding to HRAS by surface plasmon resonance (SPR), Single Cycle Kinetics; settings: for HRAS/KRAS (ratio of KD value with respect to HRAS to KD value with respect to KRAS): GDP-bound HRAS wild-type vs GDP-bound KRAS wild-type
GDP-bound HRAS wild-type protein, sequence (P01112 whole entry): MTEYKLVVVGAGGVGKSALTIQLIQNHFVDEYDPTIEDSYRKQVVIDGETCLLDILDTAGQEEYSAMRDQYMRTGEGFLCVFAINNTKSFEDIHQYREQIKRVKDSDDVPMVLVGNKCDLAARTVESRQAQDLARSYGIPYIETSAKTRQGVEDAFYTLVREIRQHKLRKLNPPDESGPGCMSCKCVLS

[3] = SPR, GDP-bound wild-type proteins

CCO[C@@H]1C[C@H]2C(=O)N(C)C3(CC(C)(C)C3)C(=O)N(C)[C@@H](C3CCCC3)C(=O)N(C)[C@H](C(=O)N(C)C)CC(=O)N(C)[C@H]3CCCCCc4ccc(cc4)C[C@@H](C(=O)N(C)CC(=O)N[C@@H](CCc4ccc(C(F)(F)F)c(OC)c4)C(=O)N2C1)N1CC/C=C\C[C@@H](C1=O)N(C)C(=O)CN(C)C(=O)[C@H]([C@@H](C)CC)NC3=O [PP3091]
NRAS/KRAS (ratio of KD value with respect to GDP-bound NRAS wild-type protein to KD value with respect to KRAS) [1, 3]: A (a compound having 10 or more and less than 20 is denoted as A) | HRAS/KRAS (ratio of KD value with respect to GDP-bound HRAS wild-type protein to KD value with respect to KRAS) [2, 3]: B (a compound having 3 or more and less than 10 is denoted as B)

CCCOC[C@H]1C(=O)N[C@@H]([C@@H](C)CC)C(=O)N(C)CC(=O)N(C)[C@H]2C/C=C\CCN(C2=O)[C@@H](Cc2ccc(C)cc2)C(=O)N(C)CC(=O)N[C@@H](CCc2cc(F)c(C(F)(F)F)c(F)c2)C(=O)N2C[C@H](CCC)C[C@H]2C(=O)NC2(CCC2)C(=O)N(C)[C@@H](C2CCCC2)C(=O)N(C)[C@H](C(=O)N(C)C)CC(=O)N1C [PP2232]
NRAS/KRAS (ratio of KD value with respect to NRAS to KD value with respect to KRAS) ([1]; SPR): A (a compound having 10 or more and less than 20 is denoted as A) | HRAS/KRAS (ratio of KD value with respect to HRAS to KD value with respect to KRAS) ([2]; SPR): A (a compound having 10 or more and less than 20 is denoted as A)

CC[C@H](C)[C@@H]1NC(=O)[C@H](CC)N(C)C(=O)C[C@@H](C(=O)N(C)C)N(C)C(=O)[C@H](C2CCCC2)N(C)C(=O)C2(CCC2)NC(=O)[C@H](C)NC(=O)[C@H](CCc2cc(F)c(C(F)(F)F)c(F)c2)NC(=O)CN(C)C(=O)[C@H](Cc2ccc(C(F)(F)F)cc2)N2CC/C=C\C[C@@H](C2=O)N(C)C(=O)CN(C)C1=O [PP1140]
NRAS/KRAS (ratio of KD value with respect to NRAS to KD value with respect to KRAS) ([1]; KD ratio, SPR): A (a compound having 10 or more and less than 20 is denoted as A) | HRAS/KRAS (ratio of KD value with respect to HRAS to KD value with respect to KRAS) ([2]; KD ratio, SPR): A (a compound having 10 or more and less than 20 is denoted as A)

CCCN1C(=O)[C@@H]2CCN2C(=O)[C@H](C)N(C)C(=O)[C@H]([C@@H](C)CC)NC(=O)[C@H](CC(C)C)N(C)C(=O)C[C@@H](C(=O)N2CCOCC2)NC(=O)[C@H](C2CCCC2)N(C)C(=O)C2(CCC2)NC(=O)[C@@H]2CCCN2C(=O)[C@H](CCc2ccc(C(F)(F)F)c(Cl)c2)NC(=O)CN(C)C(=O)[C@@H]1Cc1ccc(C(F)(F)F)cc1 [PP0344] ([NMeL]I[NMeA][Aze][NPrPhe(4-CF3)][Sar][hPhe(3-Cl-4-CF3)]P[Ac4c][NMeGly(cPent)]D-Morpholide; lactam N-11)
NRAS/KRAS (ratio of KD for GDP-bound NRAS wild-type to KD for KRAS) ([1]; SPR): C (A compound having a KD ratio of 0.1 or more and less than 3 is denoted as C) | HRAS/KRAS (ratio of KD for GDP-bound HRAS wild-type to KD for KRAS) ([2]; SPR): B (a compound having 3 or more and less than 10 is denoted as B)

CC[C@H](C)[C@@H]1NC(=O)[C@H](CC(C)C)N(C)C(=O)C[C@@H](C(=O)N2CCOCC2)N(C)C(=O)[C@H](C2CCCC2)N(C)C(=O)C2(CCCC2)NC(=O)[C@@H]2CCCN2C(=O)[C@H](CCc2ccc(C(F)(F)F)c(Cl)c2)NC(=O)CN(C)C(=O)[C@H](Cc2ccc(C(F)(F)F)cc2)N(CC(C)C)C(=O)CN(C)C(=O)CN(C)C1=O [PP0121] ([NMeL]I[Sar][Sar][X23][Sar][hPhe(3-Cl-4-CF3)]P[Ac5c][NMeGly(cPent)][NMeD]-Morpholide; lactam N-11)
NRAS/KRAS (ratio of KD for GDP-bound NRAS wild-type to KD for KRAS) ([1]; SPR): C (A compound having a KD ratio of 0.1 or more and less than 3 is denoted as C) | HRAS/KRAS (ratio of KD for GDP-bound HRAS wild-type to KD for KRAS) ([2]; SPR): C (A compound having a KD ratio of 0.1 or more and less than 3 is denoted as C)

CC[C@H](C)[C@@H]1NC(=O)[C@H](COC)N(C)C(=O)C[C@@H](C(=O)N2CCOCC2)N(C)C(=O)[C@H](C2CCCC2)N(C)C(=O)C2(CCC2)NC(=O)[C@@H]2C[C@@H](OC)CN2C(=O)[C@H](CCc2cc(F)c(C(F)(F)F)c(F)c2)NC(=O)CN(C)C(=O)[C@H](Cc2ccc(C(F)(F)F)cc2)N2CCCCC[C@@H](C2=O)N(C)C(=O)CN(C)C1=O [PP0837]
NRAS/KRAS (ratio of KD value with respect to NRAS to KD value with respect to KRAS) ([1]; KD ratio, SPR): B (a compound having 3 or more and less than 10 is denoted as B) | HRAS/KRAS (ratio of KD value with respect to HRAS to KD value with respect to KRAS) ([2]; KD ratio, SPR): B (a compound having 3 or more and less than 10 is denoted as B)

CCO[C@@H]1C[C@H]2C(=O)NC3(CC(C)(C)C3)C(=O)N(C)[C@@H](C3CCCCC3)C(=O)N(C)[C@H](C(=O)N(C)C)CC(=O)N(C)[C@@H](COC)C(=O)N[C@@H]([C@@H](C)CC)C(=O)N(C3CC3)CC(=O)N(C)[C@H]3C/C=C\CCN(C3=O)[C@@H](Cc3ccc(C(F)(F)F)cc3)C(=O)N(C)CC(=O)N[C@@H](CCc3cc(F)c(C(F)(F)F)c(F)c3)C(=O)N2C1 [PP2657]
NRAS/KRAS (ratio of KD value with respect to GDP-bound NRAS wild-type protein to KD value with respect to KRAS) ([1]; class symbols): A (a compound having 10 or more and less than 20 is denoted as A) | HRAS/KRAS (ratio of KD value with respect to GDP-bound HRAS wild-type protein to KD value with respect to KRAS) ([2]; class symbols): A (a compound having 10 or more and less than 20 is denoted as A)
